Experimental findings from patent US20220016200A1, “PHARMACEUTICAL COMPOSITION FOR THE TREATMENT OF CYSTIC FIBROSIS” (GALENUS G.H. AG, priority 2018, published 2022) are described below.

Where two headings read alike, the source gives them in different places. Bridge positions count the residues as written; N and C are the ends. Square brackets hold non-standard residues; d marks the D form. Peptide text beside a SMILES is read from it. * marks the point of attachment. Heptanoyl(5-Me) = CCC(C)CCCC(=O)*; Dab = NCC[C@H](N)C(=O)O

A word on the MBC: it is the lowest tested concentration that kills the bacteria rather than only halting them.

The subject of test [1] is A. nosocomialis strain (1204194 IHMA). The test is described as follows: Pneumonic mouse model, colistin susceptible strain. The class given is in vivo, Acinetobacter nosocomialis. As for the experimental part: One colistin susceptible (MIC 1 mg/L) A. nosocomialis strain (1204194 IHMA) and one colistin resistant (MIC 4 mg/L) A. nosocomialis strain (1461911 IHMA) are used. […] Fresh brain heart infusion broth (Merck, Darmstadt, Germany) bacterial cultures, in an aerobic atmosphere in the logarithmic growth phase (4-5 hours) at 37° C., are adjusted to a concentration of 1.0×10^6 colony forming units (CFU)/mL, as verified by both spectrophotometry (OD600 0.01-0.02 nm) and colony counting.
A pneumonic mouse model was used. 8- to 12-week-old, specific-pathogen free, male or female BALB/c mice, with 25-35 g in weight, are used for the study Animals have free access to food and water except during experimental procedures. All studies are performed in accordance with the ethical guidelines for the care and use of laboratory animals, and the protocol is approved by an independent ethical commission.
For inoculation, fresh inocula are prepared for each experiment from frozen stocks of the two A. nosocomialis isolates (1204194 and 1461911 IHMA). Broth cultures of freshly plated A. nosocomialis bacteria are grown to logarithmic phase overnight to an absorbance of 0.3 at 630 nm and diluted to 10^7 CFU/ml in saline. Mice are anesthetized by intraperitoneal (i.p.) injection of 12.5 mg/kg (5 μl) xylazine and 80 mg/kg (25 μl) ketamine and then inoculated intranasally with 0.05 ml of this bacterial suspension. […]

The test system of the next test is A. nosocomialis 1461911. As to the kind of experiment: Checkerboard fusidic acid (FD) and colistin sulfate (CS), MIC/FIC and MBC/FBC. It counts as cell-based, Acinetobacter nosocomialis. The protocol:
(§1) Checkerboard assays between fusidic acid (FD) and colistin sulfate (CS) with a bacterial load 5(1-10)*10^5 CFU/ml in cationic adapted Mueller Hinton broth (CAMHB). • a. Antimicrobial stock solutions were prepared using sterile distilled water; • b. CS was added along the ordinate; FD was added along the abscissa to 96 well, flat bottom, polystyrene panels with no treatment. Colistin alone was tested in triplicates; • c. Serial 2-fold dilutions starting with 640 […] CS and 640 μg/ml FD were made; 15 μl volume of the serial dilutions were added for each agent to the appropriate wells—final volume at 30 μl; • d. For each agent tested alone an additional 15 μl media was added to the well. 30 μl were added in control wells where none of the agent was tested. The negative control well contains 150 μl media without any additions; • e. From an overnight bacterial culture in tryptic soy broth, 100 μL was added to 10 mL of fresh tryptic soy broth. This was then incubated at 37° C. for 1.5 hour at 180 rpm; • f. Bacteria in 120 μl CAMHB were added to each well (end concentration 5(1-10)*10^5 CFU/ml); • g. Plates were incubated at 37° C. in an ambient air incubator for 24 h • h. Turbidity at OD600 is determined with a plate photometer • i. By using a one-time inoculator 3 μl from each well of the 96-well plate were transferred to three blood agar plates. The plates were incubated over night at 37° C. in an ambient air incubator; • j. MIC values are defined as lowest concentration which restricts bacterial growth to OD600≤0.1; • k. MBC values were determined by visual reading the lowest concentration which inhibits 99.9% of the growth of bacteria in the wells; • l. Determination of the fractional inhibitory concentration (FIC) index and fractional bactericidal concentration (FBC) index and characterization of antimicrobial interactions was assessed;
(§2) FIC calculation was carried out as: (MIC of drug A, tested in combination)/(MIC of drug A, tested alone)+(MIC of drug B, tested in combination)/(MIC of drug B, tested alone). FBC calculation was carried out just as well;
(§3) Interactive categories were calculated from checkerboard analysis using MIC results from testing each agent alone and MIC results from the combination wells adjacent to the wells with growth in them.
(§4) Determination of the fractional inhibitory concentration (FIC) index and fractional bactericidal concentration (FBC) index and characterization of antimicrobial interactions was assessed:
(§5) (ii) Indifference; FIC/FBC>0.5 to <4.0
(§6) (iii) Antagonism; FIC/FBC≥4.0
b. Acinetobacter nosocomialis 1461911 (IHMA), colistin resistant (3xCS 4/8)

The subject of another test is S. maltophilia 1237289. The test is described as follows: Checkerboard fusidic acid (FD) and colistin sulfate (CS), MIC/FIC. It counts as cell-based, Stenotrophomonas maltophilia. The note with it: for MIC: S. maltophilia 1237289, agent alone, CAMHB, 1*10^6 CFU/ml. The protocol:
as §1, §2, §3, §4, §5, §6
e. Stenotrophomonas maltophilia 1237289 (IHMA), colistin resistant (CS 2/4-4/8-8/8)

In the case of `CCC(C)CCCC(=O)N[C@@H](CCN)C(=O)N[C@H](C(=O)N[C@@H](CCN)C(=O)N[C@H]1CCNC(=O)[C@H]([C@@H](C)O)NC(=O)[C@H](CCN)NC(=O)[C@H](CCN)NC(=O)[C@H](CC(C)C)NC(=O)[C@@H](CC(C)C)NC(=O)[C@H](CCN)NC1=O)[C@@H](C)O` (stereo partly drawn) [CS, colistin sulphate] ({Heptanoyl(5-Me)}-[Dab]T[Dab][Dab][Dab][dL]L[Dab][Dab]T; lactam 4-C), the “mice that survive until day 3” value in test [1] (BALB/c mice, 3 per group, colistin susceptible strain, one intramuscular dose 24 hours after inoculation, combination groups stated together for both strains (6 mice)) is recorded as 2/3. The “numbers of A. nosocomialis in the lung tissue” value in test [1] (day 3, confirmed by qRT-PCR, two surviving monotherapy mice compared with all mice treated with colistin sulphate and teicoplanin or colistin sulphate and fusidic acid) was “significantly higher numbers”. Besides, the MIC with A. nosocomialis 1461911 (A. nosocomialis 1461911, agent alone, CAMHB, 1*10^6 CFU/ml, 24 h) is 4 mg/1l; in the test with A. nosocomialis 1461911 (organism list of Example 3, Acinetobacter nosocomialis 1461911, 3x, read-out: Colistin CS MIC), 4 µg/mL; in the test on S. maltophilia 1237289 (24 h) it was 1 mg/1l; in the test on S. maltophilia 1237289 (after 48 h growth (values in brackets)), “(4) mg/1l”. Also, the minimal bactericidal concentration (MBC) with A. nosocomialis 1461911 (Acinetobacter nosocomialis, A. nosocomialis 1461911, agent alone, CAMHB, 1*10^6 CFU/ml) turned out to be 8 µg/mL; with S. maltophilia 1237289 (Stenotrophomonas maltophilia, 1237289, organism list of Example 3, Stenotrophomonas maltophilia 1237289, repeated determinations), 4 µg/mL.
